{
  "source": "patent US12084460B2",
  "about": "“Crystalline forms of a TLR7/TLR8 inhibitor” (NOVARTIS AG, priority 2018, dated 2024)",
  "type_in_all_cases": "physicochemical",
  "key": {"Solubility": {"experiment": "Solubility", "description": "Form A is highly soluble at pH values of 4.7 and below (solubility higher than 2 mg/mL), however, at higher pH levels, formation of less soluble form HA leads to lower solubility values."}, "[1]": {"experiment": "Competitive solvent equilibration of form A and form HA", "settings": "1:1 mixture of form A and form HA suspended in solvents, 25-50° C., seven days, XRPD/DVS", "description": "Competitive equilibrations were carried out to investigate the relative stability of form A and HA in a competitive solvent equilibration. A 1:1 mixture of form A and form HA was prepared and suspended in various solvents or mixture thereof at temperature between 25° C. and 50° C. for seven days. The resulting suspension was filtered and analyzed by XRPD/DVS."}, "[2]": {"experiment": "Granulation simulation / dry grinding experiment", "settings": "for form change under dry grinding: XRPD and/or DSC", "description": "Behavior under granulation simulation experiment: The physical stability of crystalline forms A and HA were also evaluated in granulation simulation experiments. In these experiments granulating solvent was added dropwise to the crystalline form A or HA until the solid is wetted sufficiently. The mixture was then vortexed between each addition at 25° C. Alternatively, dry grinding was carried out. The crystallinity of the material (post-grinding) was re-evaluated by XRPD and/or DSC."}, "[3]": {"experiment": "Stability under light exposure", "settings": "exposure to 1200 kLux at 25° C."}, "[4]": {"experiment": "Solid state stability in bulk and with excipient mixtures", "settings": "bulk: 1 week 80° C., 50° C., 80° C.-75% RH, 50° C.-75% RH; excipient mixtures EM1, EM2, HGC, HMPC: 2 weeks 50° C. with or without 75% RH; HPLC and XRPD", "description": "A stability and excipient compatibility study was performed on form A and form HA. Both forms were subject to various test conditions as described below: • Test conditions in bulk: 1 week in a tight container at 80° C., 50° C., 80° C.-75% RH or 50° C.-75% RH. • Test condition with excipient mixtures (EM) • a. 1% of form A or form HA in EM1 for 2 weeks at 50° C. • b. 1% of form A or form HA in EM2 for 2 weeks at 50° C. • c. 10% of form A or form HA in crushed hard gelatin capsule (HGC) for 2 weeks at 50° C. • d. 10% of form A or form HA in crushed Hydroxypropyl Methyl Cellulose (HMPC) for 2 weeks at 50° C. • e. 1% of form A or form HA in EM1 for 2 weeks at 50° C. and 75% RH • f. 1% of form A or form HA in EM2 for 2 weeks at 50° C. and 75% RH • g. 10% of form A or form HA in crushed HGC for 2 weeks at 50° C. and 75% RH • h. 10% of form A or form HA in crushed HMPC for 2 weeks at 50° C. and 75% RH • EM1: Excipient mixture 1: Lactose spray dried (53%), Microcrystalline Cellulose (MCC) PH102 (40%), Crospovidone XL (5%), Aerosil (0.5%), Magnesium stearate (1.5%) • EM2: Excipient mixture 2: Mannitol DC (68%), MCC PH102 (26%), Ac-Di-Sol (4%), Aerosil (0.5%), Magnesium stearate (1.5%)\nThe degradation products were analyzed by HPLC and the sample was analyzed by XPRD to detect any changes to the solid state."}, "[5]": {"experiment": "Behavior under compression (physical stability)", "settings": "100 mg compressed 5 minutes at 10 tons", "description": "Behavior under compression: The physical stability of each crystalline form (Form A or Form HA) was also evaluated.\n100 mg of the crystalline form was compressed for 5 minutes at 10 tons with a hydraulic press (diameter of the tablets 8 mm). The sample was then characterized by XRPD to detect any change in the solid state."}, "[6]": {"experiment": "Hygroscopicity / behaviour under humidity (DVS)", "settings": "for behaviour at high humidity: above 70% RH", "text": "Crystalline form A is an anhydrous form of (S)—N-(4-((5-(1,6-dimethyl-1H-pyrazolo[3,4-b]pyridin-4-yl)-3-methyl-4,5,6,7-tetrahydro-1H-pyrazolo[4,3-c]pyridin-1-yl)methyl)bicyclo[2.2.2]octan-1-yl)morpholine-3-carboxamide that is highly crystalline consisting of thin tabular particles.\nCrystalline form HA is a hydrated form of (S)—N-(4-((5-(1,6-dimethyl-1H-pyrazolo[3,4-b]pyridin-4-yl)-3-methyl-4,5,6,7-tetrahydro-1H-pyrazolo[4,3-c]pyridin-1-yl)methyl)bicyclo[2.2.2]octan-1-yl)morpholine-3-carboxamide."}, "[7]": {"experiment": "Corrosivity assessment of salt form", "text": "The criteria for selection are toxicological considerations, crystallinity, melting point, hygroscopicity, stability in bulk, compatibility with excipients, pH of aqueous solution, solubility in water and aqueous media, morphology, handling and polymorphic behavior."}},
  "note": "Structures can show the parent of a compound that is named as a salt.",
  "data": [
    {"smiles": "Cc1cc(N2CCc3c(c(C)nn3CC34CCC(NC(=O)[C@@H]5COCCN5)(CC3)CC4)C2)c2cnn(C)c2n1", "note": "[Form A, (S)—N-(4-((5-(1,6-dimethyl-1H-pyrazolo[3,4-b]pyridin-4-yl)-3-methyl-4,5,6,7-tetrahydro-1H-pyrazolo[4,3-c]pyridin-1-yl)methyl)bicyclo[2.2.2]octan-1-yl)morpholine-3-carboxamide]", "values": [
      {"measurement": "solubility", "setting": "Solubility; pH 4.7, aqueous buffer, pH values of 4.7 and below", "value": "> 2000", "unit": "µg/mL"},
      {"measurement": "water activity (aw) at which form A transforms into form HA", "setting": "[1]", "value": "~0.25"},
      {"measurement": "form change under dry grinding", "setting": "[2]; listed as Modification A", "value": "stable"},
      {"measurement": "form change upon granulation", "setting": "[2]; granulation with water", "value": "partially changed"},
      {"measurement": "physical and chemical stability under light exposure", "setting": "[3]", "value": "good physical and chemical stability"},
      {"measurement": "stability in bulk state and with excipients", "setting": "[4]", "value": "good stability"},
      {"measurement": "change of crystalline form under compression (XRPD)", "setting": "[5]", "value": "No change of crystalline form"},
      {"measurement": "behaviour at high humidity", "setting": "[6]; listed as form A", "value": "transforms into the hydrate crystalline form HA"},
      {"measurement": "hygroscopicity", "setting": "[6]; up to 70% RH", "value": "slightly hygroscopic"},
      {"measurement": "moisture uptake", "setting": "[6]; up to 70% RH", "value": 1.3, "unit": "%"}
    ]},
    {"smiles": "Cc1cc(N2CCc3c(c(C)nn3CC34CCC(NC(=O)[C@@H]5COCCN5)(CC3)CC4)C2)c2cnn(C)c2n1", "note": "[Form HA, (S)—N-(4-((5-(1,6-dimethyl-1H-pyrazolo[3,4-b]pyridin-4-yl)-3-methyl-4,5,6,7-tetrahydro-1H-pyrazolo[4,3-c]pyridin-1-yl)methyl)bicyclo[2.2.2]octan-1-yl)morpholine-3-carboxamide]", "values": [
      {"measurement": "solubility", "setting": "Solubility; aqueous buffers in bio-relevant media, aqueous buffer", "value": "~4", "unit": "µg/mL"},
      {"measurement": "form change under dry grinding", "setting": "[2]", "value": "no form change"},
      {"measurement": "form change upon granulation", "setting": "[2]; ethanol and water as granulation solvent, 25° C., XRPD", "value": "no form change"},
      {"measurement": "behaviour at low humidity", "setting": "[6]; below 20% RH, rehydrates to form HA at 30% RH", "value": "dehydrates to a non-characterized anhydrate form"},
      {"measurement": "hygroscopicity", "setting": "[6]; humidities above 30% RH", "value": "slightly hygroscopic"}
    ]},
    {"smiles": "Cc1cc(N2CCc3c(c(C)nn3CC34CCC(NC(=O)[C@@H]5COCCN5)(CC3)CC4)C2)c2cnn(C)c2n1", "note": "[HCl salt, (S)—N-(4-((5-(1,6-dimethyl-1H-pyrazolo[3,4-b]pyridin-4-yl)-3-methyl-4,5,6,7-tetrahydro-1H-pyrazolo[4,3-c]pyridin-1-yl)methyl)bicyclo[2.2.2]octan-1-yl)morpholine-3-carboxamide]", "values": [
      {"measurement": "behaviour at high humidity", "setting": "[6]", "value": "deliquescent"},
      {"measurement": "corrosivity", "setting": "[7]", "value": "potential corrosivity"}
    ]}
  ]
}
